From ChEMBL document CHEMBL1144685, “Naphthamides as novel and potent vascular endothelial growth factor receptor tyrosine kinase inhibitors: design, synthesis, and evaluation” (J Med Chem, 2008)
Active and inactive are the calls of the source. The rule behind the calls is not given here.

Tests used:
HUVEC [1] = assay: cells; conditions: Homo sapiens
Description: Inhibition of bFGF-induced proliferation of HUVEC cells

[2] = molecular target: Vascular endothelial growth factor receptor 2 (Homo sapiens, UniProt P35968)
Description: Inhibition of KDR by HTRF assay

HUVEC [3] = assay: cells; conditions: Homo sapiens; remark: listed apart in the source
Description: Inhibition of VEGF-induced proliferation of HUVEC cells

[4] = Half life in Sprague-Dawley rat at 1 mg/kg, iv; type: ADME, organism-based; set-up: dose 1 mg/kg, route intravenous; conditions: in vivo
[5] = Mean retention time in Sprague-Dawley rat at 1 mg/kg, iv; type: ADME, organism-based; set-up: dose 1 mg/kg, route intravenous; conditions: in vivo
[6] = Intrinsic clearance in human liver microsomes; type: ADME, Microsome
[7] = AUC (0 to 24 hrs) in Sprague-Dawley rat at 10 mg/kg, po; type: ADME, organism-based; set-up: time < 24 hr, dose 10 mg/kg, route oral; conditions: plasma
[8] = Cmax in Sprague-Dawley rat at 10 mg/kg, po; type: ADME, organism-based; set-up: dose 10 mg/kg, route oral; conditions: in vivo
Cytochrome P450 3A4 = Cytochrome P450 3A4 (Homo sapiens, UniProt P08684)
Sequence of Cytochrome P450 3A4 (P08684 whole entry): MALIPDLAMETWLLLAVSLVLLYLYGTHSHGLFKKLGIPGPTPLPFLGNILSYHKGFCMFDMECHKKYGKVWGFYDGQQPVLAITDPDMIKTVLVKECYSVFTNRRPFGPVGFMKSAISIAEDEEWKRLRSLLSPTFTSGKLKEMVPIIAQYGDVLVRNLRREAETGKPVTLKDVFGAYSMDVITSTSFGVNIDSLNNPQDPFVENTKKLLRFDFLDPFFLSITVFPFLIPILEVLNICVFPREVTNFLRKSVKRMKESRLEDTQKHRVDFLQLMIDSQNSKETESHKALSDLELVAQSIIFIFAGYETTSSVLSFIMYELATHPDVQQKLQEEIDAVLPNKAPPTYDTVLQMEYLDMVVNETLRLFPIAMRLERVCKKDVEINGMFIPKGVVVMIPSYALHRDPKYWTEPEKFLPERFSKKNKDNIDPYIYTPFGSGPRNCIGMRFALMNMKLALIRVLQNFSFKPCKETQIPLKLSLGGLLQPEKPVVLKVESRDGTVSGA

[9] = Volume of distribution at steady state in Sprague-Dawley rat at 1 mg/kg, iv; type: ADME, organism-based; set-up: dose 1 mg/kg, route intravenous; conditions: in vivo, read-out: Vdss
Cytochrome P450 2D6 = Cytochrome P450 2D6 (Homo sapiens, UniProt P10635)
Sequence of Cytochrome P450 2D6 (P10635 whole entry): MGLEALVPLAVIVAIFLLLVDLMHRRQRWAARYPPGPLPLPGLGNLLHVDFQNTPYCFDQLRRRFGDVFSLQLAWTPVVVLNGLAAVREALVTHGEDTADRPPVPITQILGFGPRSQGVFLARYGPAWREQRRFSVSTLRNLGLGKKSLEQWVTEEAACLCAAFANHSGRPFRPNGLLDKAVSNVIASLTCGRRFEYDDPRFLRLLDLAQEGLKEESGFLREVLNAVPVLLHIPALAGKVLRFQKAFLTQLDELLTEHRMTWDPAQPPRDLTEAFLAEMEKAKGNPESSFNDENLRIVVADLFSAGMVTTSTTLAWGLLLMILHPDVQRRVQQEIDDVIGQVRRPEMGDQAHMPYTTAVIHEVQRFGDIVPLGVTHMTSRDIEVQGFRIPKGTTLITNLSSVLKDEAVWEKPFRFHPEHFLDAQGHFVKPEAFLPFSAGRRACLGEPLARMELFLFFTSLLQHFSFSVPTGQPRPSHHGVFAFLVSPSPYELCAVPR

[10] = Oral bioavailability in Sprague-Dawley rat at 10 mg/kg; type: ADME, organism-based; conditions: in vivo
[11] = Intrinsic clearance in rat liver microsomes; type: ADME, Microsome
[12] = Clearance in Sprague-Dawley rat at 1 mg/kg, iv; type: ADME, organism-based; set-up: dose 1 mg/kg, route intravenous; conditions: in vivo
[13] = AUC (0 to 24 hrs) in Sprague-Dawley rat at 2 mg/kg; type: ADME, organism-based; set-up: time < 24 hr, dose 2 mg/kg; conditions: plasma
[14] = Mean retention time in Sprague-Dawley rat at 0.25 mg/kg, iv; type: ADME, organism-based; set-up: dose 0.25 mg/kg, route intravenous; conditions: in vivo
[15] = Half life in Sprague-Dawley rat at 0.25 mg/kg, iv; type: ADME, organism-based; set-up: dose 0.25 mg/kg, route intravenous; conditions: in vivo
[16] = Cmax in Sprague-Dawley rat at 2 mg/kg; type: ADME, organism-based; set-up: dose 2 mg/kg; conditions: in vivo
[17] = Clearance in Sprague-Dawley rat at 0.25 mg/kg, iv; type: ADME, organism-based; set-up: dose 0.25 mg/kg, route intravenous; conditions: in vivo
[18] = Volume of distribution at steady state in Sprague-Dawley rat at 0.25 mg/kg, iv; type: ADME, organism-based; set-up: dose 0.25 mg/kg, route intravenous; conditions: in vivo, read-out: Vdss
[19] = Oral bioavailability in Sprague-Dawley rat at 2 mg/kg; type: ADME, organism-based; conditions: in vivo
[20] = Volume of distribution at steady state in Sprague-Dawley rat at 0.5 mg/kg, iv; type: ADME, organism-based; set-up: dose 0.5 mg/kg, route intravenous; conditions: in vivo, read-out: Vdss
[21] = Mean retention time in Sprague-Dawley rat at 0.5 mg/kg, iv; type: ADME, organism-based; set-up: dose 0.5 mg/kg, route intravenous; conditions: in vivo
[22] = Clearance in Sprague-Dawley rat at 0.5 mg/kg, iv; type: ADME, organism-based; set-up: dose 0.5 mg/kg, route intravenous; conditions: in vivo
[23] = Half life in Sprague-Dawley rat at 0.5 mg/kg, iv; type: ADME, organism-based; set-up: dose 0.5 mg/kg, route intravenous; conditions: in vivo
[24] = AUC (0 to 24 hrs) in Sprague-Dawley rat at 2 mg/kg, po; type: ADME, organism-based; set-up: time < 24 hr, dose 2 mg/kg, route oral; conditions: plasma
[25] = Cmax in Sprague-Dawley rat at 2 mg/kg, po; type: ADME, organism-based; set-up: dose 2 mg/kg, route oral; conditions: in vivo
HT-29 [26] = assay: Antitumor activity against human HT29 cell xenografted CD1 nu/nu mouse assessed as inhibition of tumor growth at 10 mg/kg, po after 7 days; type: functional, organism-based; set-up: dose 10 mg/kg
Mus musculus [27] = species on record: Mus musculus; assay: Inhibition of mouse KDR phosphorylation in BALB/c mouse lung assessed as phosphorylated Flk1 level by Delphia assay; type: functional, organism-based
HT-29 [28] = assay: Antitumor activity against human HT29 cell xenografted CD1 nu/nu mouse assessed as inhibition of tumor growth at 30 mg/kg, po after 10 days; type: functional, organism-based; set-up: dose 30 mg/kg
Mus musculus [29] = assay: Inhibition of vascular permeability in HEK293 cells over expressing recombinant mouse VEGF implanted CD1 nu/nu mouse at 100 mg/kg, po by Matrigel plug assay; type: functional, organism-based; set-up: dose 100 mg/kg
Mus musculus [30] = assay: Inhibition of vascular permeability in HEK293 cells over expressing recombinant mouse VEGF implanted CD1 nu/nu mouse at 30 mg/kg, po by Matrigel plug assay; type: functional, organism-based; set-up: dose 30 mg/kg

Sequence of Vascular endothelial growth factor receptor 2 (P35968 whole entry): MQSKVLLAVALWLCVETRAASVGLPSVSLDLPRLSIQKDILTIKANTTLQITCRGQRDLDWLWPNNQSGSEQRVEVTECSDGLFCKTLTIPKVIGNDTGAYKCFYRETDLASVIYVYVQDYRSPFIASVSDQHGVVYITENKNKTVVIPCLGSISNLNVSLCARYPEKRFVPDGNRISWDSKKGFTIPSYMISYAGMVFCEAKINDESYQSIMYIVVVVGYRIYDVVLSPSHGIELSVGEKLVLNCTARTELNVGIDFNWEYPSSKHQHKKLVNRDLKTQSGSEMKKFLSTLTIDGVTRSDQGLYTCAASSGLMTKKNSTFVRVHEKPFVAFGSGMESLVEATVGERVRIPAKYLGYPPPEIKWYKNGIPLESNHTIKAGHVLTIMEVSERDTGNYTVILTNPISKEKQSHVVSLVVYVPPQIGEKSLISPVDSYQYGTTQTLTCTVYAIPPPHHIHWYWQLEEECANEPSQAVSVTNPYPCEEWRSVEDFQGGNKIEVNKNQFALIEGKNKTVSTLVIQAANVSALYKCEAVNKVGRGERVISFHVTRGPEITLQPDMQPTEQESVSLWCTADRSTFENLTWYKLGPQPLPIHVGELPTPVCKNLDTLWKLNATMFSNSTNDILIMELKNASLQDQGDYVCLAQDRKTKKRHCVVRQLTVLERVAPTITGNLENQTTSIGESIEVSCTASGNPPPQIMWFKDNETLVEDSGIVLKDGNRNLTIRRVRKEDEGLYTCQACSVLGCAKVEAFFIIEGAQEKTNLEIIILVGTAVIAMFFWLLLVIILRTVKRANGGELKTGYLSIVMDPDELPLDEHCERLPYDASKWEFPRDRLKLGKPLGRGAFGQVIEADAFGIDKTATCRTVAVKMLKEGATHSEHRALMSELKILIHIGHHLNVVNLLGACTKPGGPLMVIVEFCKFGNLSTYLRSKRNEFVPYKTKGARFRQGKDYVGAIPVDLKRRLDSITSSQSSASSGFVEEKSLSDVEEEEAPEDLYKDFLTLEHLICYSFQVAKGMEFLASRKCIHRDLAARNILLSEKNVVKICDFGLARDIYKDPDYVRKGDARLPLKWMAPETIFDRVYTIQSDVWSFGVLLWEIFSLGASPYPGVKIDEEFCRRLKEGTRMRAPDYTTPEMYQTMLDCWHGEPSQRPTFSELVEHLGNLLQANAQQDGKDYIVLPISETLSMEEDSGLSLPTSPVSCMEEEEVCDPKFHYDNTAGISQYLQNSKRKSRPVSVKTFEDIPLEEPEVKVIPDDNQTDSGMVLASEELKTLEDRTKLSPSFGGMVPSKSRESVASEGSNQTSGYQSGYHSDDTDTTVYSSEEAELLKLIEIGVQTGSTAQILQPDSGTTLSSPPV

| SMILES | IC50 [2] [nM] | IC50 (HUVEC [1]) [nM] | IC50 (HUVEC [3]) [nM] | also measured |
| --- | --- | --- | --- | --- |
| COc1cc2nccc(Oc3ccc4c(C(=O)NC5CCCC5)cccc4c3)c2cc1OC | 9 | > 1140 | 7 |  |
| COc1cc2nccc(Oc3ccc4c(C(=O)Nc5cc(C(C)(C)C)on5)cccc4c3)c2cc1OC | 0.8 | 190 | 68 |  |
| O=C(Nc1ccc(Cl)cc1)c1cccc2cc(Oc3ccncn3)ccc12 | 310 |  |  |  |
| CNc1cc(Oc2ccc3c(C(=O)Nc4ccc(Cl)cc4)cccc3c2)ccn1 | 7 | > 1100 | 140 |  |
| COc1cc2nccc(Oc3ccc4c(C(=O)Nc5ccc(Cl)cc5)cccc4c3)c2cc1C(N)=O | 0.2 | 380 | 3 |  |
| COc1cc2nccc(Oc3ccc4c(C(=O)Nc5ccc(Cl)cc5)cccc4c3F)c2cc1OC | 0.3 | 280 | 2 | microsomal CLint [6]: 30 µL/min/mg; AUC(0-t) at 24 h [13]: 6010 ng·h/mL; MRT [14]: 22 h; half-life [15]: 17 h; Cmax [16]: 610 ng/mL; IC50 (Cytochrome P450 3A4): > 50000 nM; IC50 (Cytochrome P450 2D6): > 50000 nM; clearance [17]: 1.67 mL/min/kg; microsomal CLint [11]: 30 µL/min/mg; Vd [18]: 2.4 L/kg; bioavailability [19]: 50% |
| COc1cc2ncc(F)c(Oc3ccc4c(C(=O)Nc5ccc(Cl)cc5)cccc4c3)c2cc1OC | 20 | > 1100 | 69 |  |
| O=C(Nc1ccc(Cl)cc1)c1cccc2cc(Oc3ncnc4[nH]ccc34)ccc12 | 28 | > 1140 | 37 |  |
| CNc1cc(Oc2ccc3c(C(=O)Nc4ccc(Cl)cc4)cccc3c2)ncn1 | 20 | > 1100 | 106 |  |
| COc1cc2nccc(N(C)c3ccc4c(C(=O)Nc5ccc(Cl)cc5)cccc4c3)c2cc1OC | > 1400 |  |  |  |
| COc1cc2nccc(Oc3ccc4c(C(=O)Nc5nccs5)cccc4c3)c2cc1OC |  | 605 | 2 |  |
| COc1cc2nccc(Oc3ccc4c(C(=O)Nc5ccc(Cl)cc5)cccc4c3)c2cc1OC |  |  |  | Activity (HT-29 [26]): Active; Activity (Mus musculus [27]): Active; Activity (HT-29 [28]): Active; Activity (Mus musculus [29]): Dose-dependent effect; Activity (Mus musculus [30]): Dose-dependent effect |
| COc1ccc2c(Oc3ccc4c(C(=O)Nc5ccc(Cl)cc5)cccc4c3)ccnc2c1 | 1 | > 1100 | 8 |  |
| CNC(=O)c1cc(Oc2ccc3c(C(=O)Nc4ccc(Cl)cc4)cccc3c2)ccn1 | 3 | > 1100 | 210 |  |
| O=C(Nc1ccc(Cl)cc1)c1cccc2cc(Oc3ccncc3)ccc12 | 18 | > 1100 | 220 |  |
| COc1cc2nccc(Nc3ccc4c(C(=O)Nc5ccc(Cl)cc5)cccc4c3)c2cc1OC | 8 | 115 | 14 |  |
| CNc1nccc(Oc2ccc3c(C(=O)Nc4ccc(Cl)cc4)cccc3c2)n1 | 46 | > 1100 | 296 |  |
| COc1cc2nccc(Oc3ccc4c(C(=O)NC5CCC5)cccc4c3)c2cc1OC | 3 | > 1140 | 7 |  |
| COc1cc2nccc(Oc3ccc4c(C(=O)NC5CC5)cccc4c3)c2cc1OC |  |  | 1 |  |
| O=C(Nc1ccc(Cl)cc1)c1cccc2cc(Oc3ccnc4ccccc34)ccc12 | 4 | > 1100 | 34 |  |
| COc1cc2nccc(Oc3ccc4c(C(=O)Nc5ccc(Cl)cc5)ccnc4c3)c2cc1OC | 22 | 88 | 10 |  |

The next lines start with results.

| IC50 [2] [nM] | SMILES | IC50 (HUVEC [1]) [nM] | IC50 (HUVEC [3]) [nM] | also measured |
| --- | --- | --- | --- | --- |
| 0.2 | COc1cc2nccc(Oc3ccc4c(C(=O)Nc5ccccc5)cccc4c3)c2cc1OC | 577 | 0.8 |  |
| 15 | COc1cc2nccc(Oc3ccc4c(C(=O)NC5(C)CC5)cccc4c3)c2cc1OC |  |  |  |
| 0.8 | COc1cc2nccc(Oc3ccc4c(C(=O)Nc5cccnc5)cccc4c3)c2cc1OC | 1100 | 2 | half-life [4]: 1.1 h; MRT [5]: 1.4 h; microsomal CLint [6]: 90 µL/min/mg; AUC(0-t) at 24 h [7]: 27100 ng·h/mL; Cmax [8]: 5710 ng/mL; IC50 (Cytochrome P450 3A4): 2000 nM; Vd [9]: 1.3 L/kg; IC50 (Cytochrome P450 2D6): 17000 nM; bioavailability [10]: 100%; microsomal CLint [11]: 90 µL/min/mg; clearance [12]: 15 mL/min/kg |
| 1 | COc1cc2nccc(Oc3ccc4c(C(=O)Nc5ccc(F)cc5)cccc4c3)c2cc1OC | 305 | 2 |  |
| 0.3 | COc1cc2nccc(Oc3ccc4c(C(=O)Nc5cc(Cl)cc(Cl)c5)cccc4c3)c2cc1OC | 742 | 28 |  |
| 0.6 | COc1cc2nccc(Oc3ccc4c(C(=O)Nc5cc(C)on5)cccc4c3)c2cc1OC | 250 | 6 |  |
| 0.7 | COc1cc2nccc(Oc3ccc4c(C(=O)Nc5ccc(C(C)(C)C)cc5)cccc4c3)c2cc1OC | 944 | 63 |  |
| 0.3 | COc1cc2nccc(Oc3ccc4c(C(=O)Nc5cccc(Cl)c5)cccc4c3)c2cc1OC |  | 5.1 |  |
| 1 | COc1cc2nccc(Oc3ccc4c(C(=O)Nc5cc(C)no5)cccc4c3)c2cc1OC | > 1140 | 7 | Vd [20]: 2.7 L/kg; microsomal CLint [6]: 40 µL/min/mg; MRT [21]: 2.1 h; clearance [22]: 21.7 mL/min/kg; IC50 (Cytochrome P450 3A4): 40000 nM; IC50 (Cytochrome P450 2D6): > 50000 nM; microsomal CLint [11]: 40 µL/min/mg; half-life [23]: 2.4 h |
| 0.8 | COc1cc2nccc(Oc3ccc4c(C(=O)Nc5ccccn5)cccc4c3)c2cc1OC | 286 | 2 | half-life [4]: 6.1 h; MRT [5]: 7.8 h; microsomal CLint [6]: 80 µL/min/mg; IC50 (Cytochrome P450 3A4): 13000 nM; Vd [9]: 3.1 L/kg; IC50 (Cytochrome P450 2D6): > 50000 nM; microsomal CLint [11]: 90 µL/min/mg; clearance [12]: 6.67 mL/min/kg; AUC(0-t) at 24 h [24]: 1240 ng·h/mL; Cmax [25]: 200 ng/mL; bioavailability [19]: 45% |
| 2 | COc1cc2nccc(Oc3ccc4c(C(=O)Nc5ccncc5)cccc4c3)c2cc1OC | > 1140 | 2 | half-life [4]: 1.8 h; MRT [5]: 2.5 h; microsomal CLint [6]: 30 µL/min/mg; AUC(0-t) at 24 h [7]: 11000 ng·h/mL; Cmax [8]: 1690 ng/mL; IC50 (Cytochrome P450 3A4): 100 nM; Vd [9]: 1.4 L/kg; IC50 (Cytochrome P450 2D6): 700 nM; bioavailability [10]: 62%; microsomal CLint [11]: 80 µL/min/mg; clearance [12]: 10 mL/min/kg |
| 0.5 | COc1cc2nccc(Oc3ccc4c(C(=O)Nc5ccc(C(F)(F)F)cc5)cccc4c3)c2cc1OC | 228 | 16 |  |
| 1.3 | CCCNC(=O)c1cccc2cc(Oc3ccnc4cc(OC)c(OC)cc34)ccc12 | > 1140 | 7 |  |
| 23 | COc1cc2nccc(Oc3cc4cccc(C(=O)Nc5ccc(Cl)cc5)c4cn3)c2cc1OC | > 1140 | 175 |  |
| 5 | COc1cc2nccc(Oc3ccc4c(C(=O)NC(C)C)cccc4c3)c2cc1OC | > 1140 | 4 |  |
| 2 | COc1cc2nccc(Oc3ccc4c(C(=O)Nc5ccc(Cl)cc5Cl)cccc4c3)c2cc1OC | > 1140 | 14 |  |
| 0.5 | COc1cc2nccc(Oc3ccc4c(C(=O)Nc5cccc(C(F)(F)F)c5)cccc4c3)c2cc1OC | 205 | 34 |  |
| 0.6 | COc1cc2nccc(Oc3ccc4c(C(=O)Nc5cccc(F)c5)cccc4c3)c2cc1OC |  | 3 |  |
| 2 | COc1cc2nccc(Oc3ccc4c(C(=O)Nc5ccccc5F)cccc4c3)c2cc1OC | > 1140 | 7 |  |
| 1 | COc1cc2nccc(Oc3ccc4c(C(=O)Nc5ccc(Cl)c(C(F)(F)F)c5)cccc4c3)c2cc1OC | 228 | 247 |  |
| 0.2 | COc1cc2nccc(Oc3ccc4c(C(=O)Nc5ccon5)cccc4c3)c2cc1OC |  |  |  |
| 0.5 | COc1cc2nccc(Oc3ccc4c(C(=O)Nc5ccc(C)cc5)cccc4c3)c2cc1OC | 548 | 2 |  |
